The record followed here is patent US20100105772A1, “USE OF NOVEL LIPID MEDIATORS TO INHIBIT ANGIOGENESIS” (priority 2008, published 2010).

For this test, the system named is IL-1β-induced corneal HA and LA. The test is described as follows: Corneal micropocket assay with IL-1β pellets (vessel density). Format: in vivo, mice. The note with it: IL-1β micropellet, day 7. As to the method: FIG. 6. ATLa Regulate IL-1β- and VEGF-A-induced Corneal HA and LA. Hydron pellets containing IL-1β or VEGF-A were implanted into the corneas on day 0. ATLa or vehicle was subconjunctivally injected every 48 h from 0 to 7 days after pellet implantation (4 corneas per treatment, for each pellet-type). A. Slit-lamp examination was performed on day 7 and representative images are shown. B. The density of blood vessels (CD31^high/LYVE-1^−) or lymphatic vessels (CD31^lowLYVE-1^high) covering each cornea was analyzed. Values are expressed as the mean (±SEM) of each treatment group (4 corneas per group) and the data are representative of two independent experiments (*P<0.05 vs vehicle-treated group, t-test).
The corneal micropocket assay in mice and quantification of the resultant NV has been described previously.^16,17 In brief, 0.3 μl of hydron pellets (IFN Sciences, New Brunswick, N.J.) containing 30 ng of murine IL-1β (R&D Systems, Minneapolis, Minn.) or 200 ng of VEGF-A (gift from BRB Preclinical Repository, National Cancer Institute) were prepared and implanted into the corneal stroma of male BALB/c mice. After 7 days the animals were sacrificed and the corneas were harvested for quantitative analysis of HA and LA.
BALB/c mice were randomized to receive ATLa, or vehicle (normal saline) by subconjunctival injection in a masked fashion after suture or hydron pellet placement. […]

`COC(=O)CCC[C@H](O)[C@H](O)/C=C/C=C/C=C\C=C\[C@H](O)COc1ccc(F)cc1` [ATLa, 15-epi-16-(para-fluoro)-phenoxy-lipoxin A4 methyl ester] gave a BV density (n=4, mean±SEM) of 16.1±3.0%. Under “vs vehicle”, the “LA stimulated by IL-1β” value was “no significant reduction”.
